Values quoted from earlier work in publication PMC2677997 (Bioorganic & medicinal chemistry, 2009).

System: SNARE cleavage in neuronal cells
Settings: cited from earlier work

O=C(/C=C/c1ccc(Cl)cc1Cl)NO [Compound 2, 2,4-dichlorocinnamic hydroxamic acid]
activity in a cellular assay: inactive or cytotoxic
